Here are results for 58 compounds from patent US20260327224A1, “SUBSTITUTED PYRIDOTRIAZOLE COMPOUND, AND PREPARATION METHOD THEREFOR AND USE THEREOF” (ORIGIANT PHARMACEUTICAL CO., LTD., priority 2023, published 2026).

What is called EC50 is the concentration at which the effect is half-maximal.

The subject of the test is HT-29 cells (colon cancer cells). Kind of test: In vitro assay for protection of HT-29 cells from necroptosis (TNFα/Smac mimetic/Z-VAD-FMK, CCK-8). It is filed as cell-based. The following applies: Homo sapiens, Protective Activity Against Necroptosis, TNFα/Smac mimetic/Z-VAD-FMK induced, 24 h. The procedure, abridged:
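Cells seeded overnight received compound in triplicate, then were induced with TNFα/Smac mimetic/Z-VAD-FMK for 24 h. Viability was read by CCK-8 absorbance at 495 nm after 1-3 h; protection rate normalized to solvent and medium-only controls, EC50 from fitted curve.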
Regarding `CC(=O)Nc1nc2cc(-c3ccc4c(c3)c(C(=O)N[C@H]3CCc5cc(C#N)ccc53)cn4C)ccn2n1` [Compound 132], the EC50 fell in the range of 100 to 1000 nM. As to `Cn1cc(C(=O)N[C@H]2CCCc3cc(F)ccc32)c2cc(-c3ccn4nc(NC(=O)[C@H]5CCCO5)nc4c3)ccc21` [Compound 137], the EC50 was 10 to 100 nM. As to `Cn1cc(C(=O)N[C@H]2CCCc3cc(F)ccc32)c2cc(-c3ccn4nc(NC(=O)[C@@H]5CCCO5)nc4c3)ccc21` [Compound 139], the concentration for a half-maximal effect (EC50) was 1 to 10 nM. In the case of `Cn1cc(C(=O)Nc2nc3cc(-c4ccc5c(c4)c(C(=O)N[C@H]4CCCc6cc(F)ccc64)cn5C)ccn3n2)cn1` [Compound 141], the half-maximal effective concentration (EC50) was 1 to 10 nM. The figure for `Cn1cc(C(=O)N[C@H]2CCCc3cc(F)ccc32)c2cc(-c3ccn4nc(NC(=O)CC#N)nc4c3)ccc21` [Compound 142] is 10 to 100 nM. In the case of `Cn1cc(C(=O)Nc2nc3cc(-c4ccc5c(c4)c(C(=O)N[C@H]4CCCc6ccc(F)cc64)cn5C)ccn3n2)cn1` [Compound 143], the EC50 lay in the range of 1 to 10 nM. Regarding `CC(=O)Nc1nc2cc(-c3ccc4c(c3)c(C(=O)N[C@H]3CCCc5ccc(F)cc53)cn4C)ccn2n1` [Compound 145], the EC50 lay within 1 to 10 nM. For `Cn1cc(C(=O)N[C@H]2CCCc3ccc(F)cc32)c2cc(-c3ccn4nc(NC(=O)[C@H]5CCCO5)nc4c3)ccc21` [Compound 146], the 50% effective concentration (EC50) was 10 to 100 nM.

Turning to `Cn1cc(C(=O)NC2(c3ccc(F)cc3)COC2)c2cc(-c3ccn4nc(NC(=O)C5CC5)nc4c3)ccc21` [Compound 148], the EC50 lay within 10 to 100 nM. In the case of `Cn1cc(C(=O)Nc2nc3cc(-c4ccc5c(c4)c(C(=O)N4CCOC[C@@H]4c4ccc(F)cc4)cn5C)ccn3n2)cn1` [Compound 149], the concentration for a half-maximal effect (EC50) was below 1 nM. On to `Cn1cc(C(=O)N2CCOC[C@@H]2c2ccc(F)cc2)c2cc(-c3ccn4nc(NC(=O)[C@H]5CCCO5)nc4c3)ccc21` [Compound 150], for which the EC50 is below 1 nM.

Regarding `Cn1cc(C(=O)N2CCOC[C@@H]2c2ccc(F)cc2)c2cc(-c3ccn4nc(NC(=O)C5CC5)nc4c3)ccc21` [Compound 151], the concentration for a half-maximal effect (EC50) is below 1 nM. For the compound `Cn1cc(C(=O)N2CCC[C@H]2c2ccc(F)cc2)c2cc(-c3ccn4nc(NC(=O)N5CCOCC5)nc4c3)ccc21` [Compound 153], the 50% effective concentration (EC50) is below 1 nM. The result for `Cn1cc(C(=O)N2CCC[C@H]2c2ccc(F)cc2)c2cc(-c3ccn4nc(NC(=O)C5CCCO5)nc4c3)ccc21` (stereo partly shown) [Compound 154] reads below 1 nM; that for `Cn1cc(C(=O)Nc2nc3cc(-c4ccc5c(c4)c(C(=O)N[C@@H](CF)c4cccc(F)c4)cn5C)ccn3n2)cn1` [Compound 155], below 1 nM; that for `Cn1cc(C(=O)N2CC(F)CC2c2ccc(F)cc2)c2cc(-c3ccn4nc(NC(=O)C5CC5)nc4c3)ccc21` (stereo not shown) [Compound 156], below 1 nM.

With `Cn1cc(C(=O)N2CC(F)CC2c2ccc(F)cc2)c2cc(-c3ccn4nc(NC(=O)C5CCCO5)nc4c3)ccc21` (stereo not shown) [Compound 157], the EC50 was below 1 nM. For `Cn1cc(C(=O)N2CC(F)(F)CC2c2ccc(F)cc2)c2cc(-c3ccn4nc(NC(=O)C5CC5)nc4c3)ccc21` (stereo not shown) [Compound 158], the EC50 was in the range of 1000 to 10000 nM.

As for `Cn1cc(C(=O)N2CC(F)(F)CC2c2ccc(F)cc2)c2cc(-c3ccn4nc(NC(=O)C5CCOC5)nc4c3)ccc21` (stereo not shown) [Compound 159], the EC50 is below 1 nM. The figure for `Cn1cc(C(=O)N2CC(F)(F)CC2c2ccc(F)cc2)c2cc(-c3ccn4nc(NC(=O)N5CCOCC5)nc4c3)ccc21` (stereo not shown) [Compound 160] is below 1 nM.

As for `Cn1cc(C(=O)N[C@H](c2ccc(F)cc2)C(F)F)c2cc(-c3ccn4nc(NC(=O)C5CC5)nc4c3)ccc21` [Compound 161], the concentration giving a half-maximal response (EC50) is below 1 nM. On to `Cn1cc(C(=O)N[C@H](c2ccc(F)cc2)C(F)F)c2cc(-c3ccn4nc(NC(=O)CN5CCCCC5)nc4c3)ccc21` [Compound 163], for which the concentration giving a half-maximal response (EC50) is below 1 nM. The figure for `Cn1cc(C(=O)N[C@H](c2ccc(F)cc2)C(F)F)c2cc(-c3ccn4nc(NC(=O)CC#N)nc4c3)ccc21` [Compound 164] is below 1 nM. Turning to `CO[C@@H](C)C(=O)Nc1nc2cc(-c3ccc4c(c3)c(C(=O)N[C@H](c3ccc(F)cc3)C(F)F)cn4C)ccn2n1` [Compound 165], the EC50 is below 1 nM. The result for `COCC(=O)Nc1nc2cc(-c3ccc4c(c3)c(C(=O)N[C@H](c3ccc(F)cc3)C(F)F)cn4C)ccn2n1` [Compound 166] reads below 1 nM; that for `CN(C)CC(=O)Nc1nc2cc(-c3ccc4c(c3)c(C(=O)N[C@H](c3ccc(F)cc3)C(F)F)cn4C)ccn2n1` [Compound 167], below 1 nM; that for `CN1CCC(C(=O)Nc2nc3cc(-c4ccc5c(c4)c(C(=O)N[C@H](c4ccc(F)cc4)C(F)F)cn5C)ccn3n2)C1` (stereo partly shown) [Compound 168], below 1 nM. The figure for `Cn1cc(C(=O)N2N=CCC2c2ccc(F)cc2)c2cc(-c3ccn4nc(NC(=O)C5CCOC5)nc4c3)ccc21` (stereo not shown) [Compound 169] is below 1 nM.

For `Cn1cc(C(=O)N2N=CCC2c2ccc(F)cc2)c2cc(-c3ccn4nc(NC(=O)C5CC5)nc4c3)ccc21` (stereo not shown) [Compound 170], the concentration for a half-maximal effect (EC50) is below 1 nM.

Consider `Cn1cc(C(=O)Nc2nc3cc(-c4ccc5c(c4)c(C(=O)N4N=CCC4c4ccc(F)cc4)cn5C)ccn3n2)cn1` (stereo not shown) [Compound 171], for which the EC50 is 1 to 10 nM. The figure for `Cn1cc(C(=O)N2N=CCC2c2ccc(F)cc2)c2cc(-c3ccn4nc(NC(=O)N5CCOCC5)nc4c3)ccc21` (stereo not shown) [Compound 172] is 1 to 10 nM. On to `C[C@@H](c1ccc(F)cc1)N(C)C(=O)c1cn(C)c2ccc(-c3ccn4nc(NC(=O)CN(C)C)nc4c3)cc12` [Compound 174], for which the EC50 was below 1 nM. As to `C[C@@H](c1ccc(F)cc1)N(C)C(=O)c1cn(C)c2ccc(-c3ccn4nc(NC(=O)[C@@H]5CCCO5)nc4c3)cc12` [Compound 176], the EC50 was below 1 nM.

As for `CC(C(=O)Nc1cn(C)c2ccc(-c3ccn4nc(NC(=O)C5CC5)nc4c3)cc12)c1ccc(F)cc1` (stereo not shown) [Compound 177], the EC50 fell in the range of 10 to 100 nM. With `CC(C(=O)Nc1cn(C)c2ccc(-c3ccn4nc(NC(=O)[C@H]5CCCO5)nc4c3)cc12)c1ccc(F)cc1` (stereo partly shown) [Compound 178], the EC50 was in the range of 100 to 1000 nM. As for `CC(C(=O)Nc1nn(C)c2ccc(-c3ccn4nc(NC(=O)CN(C)C)nc4c3)cc12)c1ccc(F)cc1` (stereo not shown) [Compound 180], the EC50 is 1000 to 10000 nM. The result for `CC(C(=O)Nc1nn(C)c2ccc(-c3ccn4nc(NC(=O)c5cnn(C)c5)nc4c3)cc12)c1ccc(F)cc1` (stereo not shown) [Compound 181] reads 1000 to 10000 nM; that for `CC(C(=O)Nc1nn(C)c2ccc(-c3ccn4nc(NC(=O)C5CC5)nc4c3)cc12)c1ccc(F)cc1` (stereo not shown) [Compound 182], 10 to 100 nM. For the compound `Cn1cc(C(=O)N[C@@H](CF)c2cccc(F)c2)c2cc(-c3ccn4nc(NC(=O)[C@H]5CCCO5)nc4c3)ccc21` [Compound 183], the EC50 was below 1 nM. `Cn1cc(C(=O)N[C@@H]2C[C@H]2c2ccc(F)c(F)c2)c2cc(-c3ccn4nc(NC(=O)[C@H]5CCCO5)nc4c3)ccc21` [Compound 184]: the concentration for a half-maximal effect (EC50) fell in the range of 100 to 1000 nM.

Turning to `Cn1cc(C(=O)N2CCC[C@H]2c2ccc(F)cc2)c2cc(-c3ccn4nc(NC(=O)C5CCOC5)nc4c3)ccc21` (stereo partly shown) [Compound 186], the EC50 was below 1 nM.

`Cn1cc(C(=O)Nc2nc3cc(-c4ccc5c(c4)c(C(=O)N[C@@H](CF)c4ccc(F)cc4)nn5C)ccn3n2)cn1` [Compound 187]: the EC50 is below 1 nM. Consider `Cn1nc(C(=O)N[C@@H](CF)c2ccc(F)cc2)c2cc(-c3ccn4nc(NC(=O)C5CCOC5)nc4c3)ccc21` (stereo partly shown) [Compound 188], for which the concentration for a half-maximal effect (EC50) was below 1 nM. The result for `Cn1nc(C(=O)N[C@@H](CF)c2ccc(F)cc2)c2cc(-c3ccn4nc(NC(=O)N5CCOCC5)nc4c3)ccc21` [Compound 189] reads below 1 nM; that for `Cn1nc(C(=O)N[C@@H](CF)c2ccc(F)cc2)c2cc(-c3ccn4nc(NC(=O)C5CC5)nc4c3)ccc21` [Compound 190], below 1 nM; that for `C[C@H](NC(=O)c1nn(C)c2ccc(-c3ccn4nc(NC(=O)c5cnn(C)c5)nc4c3)cc12)c1ccc(F)cc1` [Compound 191], below 1 nM. Turning to `C[C@H](NC(=O)c1nn(C)c2ccc(-c3ccn4nc(NC(=O)C5CC5)nc4c3)cc12)c1ccc(F)cc1` [Compound 192], the concentration for a half-maximal effect (EC50) was below 1 nM. The figure for `C[C@H](NC(=O)c1nn(C)c2ccc(-c3ccn4nc(NC(=O)[C@H]5CCCO5)nc4c3)cc12)c1ccc(F)cc1` [Compound 193] is below 1 nM. The figure for `C[C@H](NC(=O)c1nn(C)c2ccc(-c3ccn4nc(NC(=O)N5CCOCC5)nc4c3)cc12)c1ccc(F)cc1` [Compound 195] is below 1 nM; for `C[C@H](NC(=O)c1nn(C)c2ccc(-c3ccn4nc(NC(=O)CN5CCOCC5)nc4c3)cc12)c1ccc(F)cc1` [Compound 196] it is below 1 nM. `CC[C@H](NC(=O)c1cn(C)c2ccc(-c3ccn4nc(NC(=O)CN5CCOCC5)nc4c3)cc12)c1ccc(F)cc1` [Compound 197]: the half-maximal effective concentration (EC50) is below 1 nM. With `CCn1cc(C(=O)N[C@@H](CF)c2ccc(F)cc2)c2cc(-c3ccn4nc(NC(=O)N5CCOCC5)nc4c3)ccc21` [Compound 200], the EC50 was below 1 nM. `CN(C(=O)c1cn(C)c2ccc(-c3ccn4nc(NC(=O)C5CC5)nc4c3)cc12)[C@H]1CCc2cc(F)ccc21` [Compound 205]: the EC50 is 1 to 10 nM. Regarding `Cn1cc(C(=O)Nc2nc3cc(-c4ccc5c(c4)c(C(=O)N4CCC[C@H]4c4ccc(F)cc4)cn5C)ccn3n2)cn1` [Compound 207], the EC50 is below 1 nM. For `CC(c1ccc(F)cc1)n1cnc(-c2cn(C)c3ccc(-c4ccn5nc(NC(=O)c6cnn(C)c6)nc5c4)cc23)n1` (stereo not shown) [Compound 208], the EC50 was 100 to 1000 nM. In the case of `CC(c1ccc(F)cc1)n1cnc(-c2cn(C)c3ccc(-c4ccn5nc(NC(=O)C6CC6F)nc5c4)cc23)n1` (stereo not shown) [Compound 209], the 50% effective concentration (EC50) fell in the range of 100 to 1000 nM. On to `CC(c1ccc(F)cc1)n1cnc(-c2cn(C)c3ccc(-c4ccn5nc(NC(=O)C6CC6)nc5c4)cc23)n1` (stereo not shown) [Compound 210], for which the EC50 was 100 to 1000 nM. The figure for `Cn1cc(C2=NC(c3ccc(F)cc3)CO2)c2cc(-c3ccn4nc(NC(=O)C5CC5F)nc4c3)ccc21` (stereo not shown) [Compound 211] is 10 to 100 nM.
